The record followed here is US20050124562A1, “Bis-quinazoline compounds for the treatment of bacterial infections” (priority 2003, published 2005).

Common to all, as to type: cell-based
The test system of experiment [1] is M. catarrhalis. The experiment in a line: Broth microdilution MIC (NCCLS), M. catarrhalis. The conditions noted are these: Moraxella catarrhalis, read-out: MIC range. The procedure, abridged: (§1)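 MICs by broth microdilution per NCCLS M-7 A-6 against ATCC strains, including ORSA and VRE; MBCs determined for selected organisms. Serum effect assessed by repeating MIC tests with human serum present.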
In general terms: Broth dilution looks for growth in wells or tubes with falling amounts of substance.

Experiment [2] has as its system efflux mutants of E. coli. The experiment in a line: Broth microdilution MIC (NCCLS), E. coli efflux mutants. The conditions noted are these: Escherichia coli, read-out: MICs. In outline:
as §1

The test system of experiment [3] is S. aureus, E. faecalis, S. pyogenes and S. pneumoniae. The experiment in a line: Broth microdilution MIC (NCCLS), gram-positive strains. The procedure, abridged: as §1
Experiment [4] deals with efflux mutants of P. aeruginosa. The experiment in a line: Broth microdilution MIC (NCCLS), P. aeruginosa efflux mutants. The conditions noted are these: Pseudomonas aeruginosa, read-out: MICs. The procedure, abridged:
as §1

In experiment [5] the test system is H. influenzae. The experiment can be described thus: Broth microdilution MIC (NCCLS), H. influenzae. The conditions noted are these: Haemophilus influenzae; some strains of H. influenzae. In outline: as §1
Setting [6] is: range against some strains of S. aureus, E. faecalis, S. pyogenes and S. pneumoniae, read-out: MIC.

Values after ≈ are worked out from the molar mass of the structure shown. Read-outs that look alike come from different tables or passages of the source.

In the case of `COc1cc2nc(Nc3nc(O)c4cc(OCCN5CCC(O)C5)ccc4n3)nc(C)c2cc1OC.O=C(O)C(F)(F)F` (centres unmarked) [Example 154, 2-(6,7-Dimethoxy-4-methyl-quinazolin-2-ylamino)-6-[2-(3-hydroxy-pyrrolidin-1-yl)-ethoxy]-quinazolin-4-ol trifluoroacetate salt], the MIC is 2 to 64 µg/mL in experiment [1] (some strains of M. catarrhalis); 16 to 64 µg/mL in experiment [2]; 0.06 to 16 µg/mL in experiment [3] (setting [6]); 64 µg/mL in experiment [4]; 16 to 32 µg/mL in experiment [5].
In the case of `COc1cc2nc(Nc3nc(O)c4cc(OCCN5CCCC(O)C5)ccc4n3)nc(C)c2cc1OC.O=C(O)C(F)(F)F` (centres unmarked) [Example 157, 2-(6,7-Dimethoxy-4-methyl-quinazolin-2-ylamino)-6-[2-(3-hydroxy-piperidin-1-yl)-ethoxy]-quinazolin-4-ol trifluoroacetate salt], the MIC in experiment [1] (some strains of M. catarrhalis) is 2 to 64 µg/mL; in experiment [2], 16 to 64 µg/mL; in experiment [3] (setting [6]), 0.06 to 16 µg/mL; in experiment [4], 64 µg/mL; in experiment [5], 16 to 32 µg/mL.
The corresponding values for `COc1cc2nc(Nc3nc(O)c4cc(OCCN(CCO)CCO)ccc4n3)nc(C)c2cc1OC.O=C(O)C(F)(F)F` [Example 158, 6-{2-[Bis-(2-hydroxy-ethyl)-amino]-ethoxy}-2-(6,7-dimethoxy-4-methyl-quinazolin-2-ylamino)-quinazolin-4-ol trifluoroacetate salt] are 2 to 64 µg/mL, 16 to 64 µg/mL, 0.06 to 16 µg/mL, 64 µg/mL and 16 to 32 µg/mL.
The corresponding values for `CCN(CCO)CCOc1ccc2nc(Nc3nc(C)c4cc(OC)c(OC)cc4n3)nc(O)c2c1.O=C(O)C(F)(F)F` [Example 159, 2-(6,7-Dimethoxy-4-methyl-quinazolin-2-ylamino)-6-{2-[ethyl-(2-hydroxy-ethyl)-amino]-ethoxy}-quinazolin-4-ol trifluoroacetate salt] are 2 to 64 µg/mL, 16 to 64 µg/mL, 0.06 to 16 µg/mL, 64 µg/mL and 16 to 32 µg/mL.
Turning to `COc1cc(OC)c2nc(Nc3nc(O)c4cc(OCCN5CCC(O)C5)ccc4n3)nc(C)c2c1.O=C(O)C(F)(F)F` (centres unmarked) [Example 160, 2-(6,8-Dimethoxy-4-methyl-quinazolin-2-ylamino)-6-[2-(3-hydroxy-pyrrolidin-1-yl)-ethoxy]-quinazolin-4-ol trifluoroacetate salt], the MIC was 2 to 64 µg/mL in experiment [1] (some strains of M. catarrhalis); 16 to 64 µg/mL in experiment [2]; 0.06 to 16 µg/mL in experiment [3] (setting [6]); 64 µg/mL in experiment [4]; 16 to 32 µg/mL in experiment [5].
As for `COc1cc2nc(Nc3nc(O)c4cc(OCCNCCO)ccc4n3)nc(C)c2cc1OC.O=C(O)C(F)(F)F` [Example 161, 2-(6,7-Dimethoxy-4-methyl-quinazolin-2-ylamino)-6-[2-(2-hydroxy-ethylamino)-ethoxy]-quinazolin-4-ol trifluoroacetate salt], the MIC was 2 to 64 µg/mL in experiment [1] (some strains of M. catarrhalis); 16 to 64 µg/mL in experiment [2]; 0.06 to 16 µg/mL in experiment [3] (setting [6]); 64 µg/mL in experiment [4]; 16 to 32 µg/mL in experiment [5].
Regarding `COc1cc2nc(Nc3nc(O)c4cc(OCCN5CCC(N)C5)ccc4n3)nc(C)c2cc1OC` (centres unmarked) [Example 163, 6-[2-(3-Amino-pyrrolidin-1-yl)-ethoxy]-2-(6,7-dimethoxy-4-methyl-quinazolin-2-ylamino)-quinazolin-4-ol], the MIC in experiment [1] was 2 to 64 µg/mL (≈ 4.07 to 130 µM); in experiment [2], 16 to 64 µg/mL (≈ 32.5 to 130 µM); in experiment [3] it was 0.06 to 16 µg/mL (≈ 0.122 to 32.5 µM); in experiment [4] it was 64 µg/mL (≈ 130 µM); in experiment [5] it was 16 to 32 µg/mL (≈ 32.5 to 65.1 µM).
Take `COc1cc2nc(Nc3nc(O)c4cc(OCCN5CCCC5CO)ccc4n3)nc(C)c2cc1OC.O=C(O)C(F)(F)F` (centres unmarked) [Example 164, 2-(6,7-Dimethoxy-4-methyl-quinazolin-2-ylamino)-6-[2-(2-hydroxymethyl-pyrrolidin-1-yl)-ethoxy]-quinazolin-4-ol trifluoroacetate salt]: the MIC in experiment [1] (some strains of M. catarrhalis) is 2 to 64 µg/mL; in experiment [2], 16 to 64 µg/mL; in experiment [3] (setting [6]) it was 0.06 to 16 µg/mL; in experiment [4] it was 64 µg/mL; in experiment [5], 16 to 32 µg/mL.
The corresponding values for `COc1cc2nc(Nc3nc(O)c4cc(OCCNC(CO)CO)ccc4n3)nc(C)c2cc1OC.O=C(O)C(F)(F)F` [Example 165, 2-{2[-2-(6,7-Dimethoxy-4-methyl-quinazolin-2-ylamino)-4-hydroxy-quinazolin-6-yloxy]-ethylamino}-propane-1,3-diol trifluoroacetate salt] are 2 to 64 µg/mL, 16 to 64 µg/mL, 0.06 to 16 µg/mL, 64 µg/mL and 16 to 32 µg/mL.
The corresponding values for `COc1cc(OC)c2nc(Nc3nc(O)c4cc(OCCN5CCCC5)ccc4n3)nc(C)c2c1.O=C(O)C(F)(F)F` [Example 166, 2-(6,8-Dimethoxy-4-methyl-quinazolin-2-ylamino)-6-(2-pyrrolidin-1-yl-ethoxy)-quinazolin-4-ol trifluoroacetate salt] are 2 to 64 µg/mL, 16 to 64 µg/mL, 0.06 to 16 µg/mL, 64 µg/mL and 16 to 32 µg/mL.
For `COc1cc2nc(Nc3nc(O)c4cc(OCCNC(C)CO)ccc4n3)nc(C)c2cc1OC.O=C(O)C(F)(F)F` (centres unmarked) [Example 169, 2-(6,7-Dimethoxy-4-methyl-quinazolin-2-ylamino)-6-[2-(2-hydroxy-1-methyl-ethylamino)-ethoxy]-quinazolin-4-ol trifluoroacetate salt], in that order: 2 to 64 µg/mL, 16 to 64 µg/mL, 0.06 to 16 µg/mL, 64 µg/mL and 16 to 32 µg/mL.
As to `COc1cc2nc(Nc3nc(O)c4cc(OCCN5CCOC(CO)C5)ccc4n3)nc(C)c2cc1OC.O=C(O)C(F)(F)F` (centres unmarked) [Example 170, 2-(6,7-Dimethoxy-4-methyl-quinazolin-2-ylamino)-6-[2-(2-hydroxymethyl-morpholin-4-yl)-ethoxy]-quinazolin-4-ol trifluoroacetate salt], the MIC in experiment [1] (some strains of M. catarrhalis) is 2 to 64 µg/mL; in experiment [2], 16 to 64 µg/mL; in experiment [3] (setting [6]), 0.06 to 16 µg/mL; in experiment [4], 64 µg/mL; in experiment [5], 16 to 32 µg/mL.
For `CCN(CCOc1ccc2nc(Nc3nc(C)c4cc(OC)c(OC)cc4n3)nc(O)c2c1)CCN(C)C.O=C(O)C(F)(F)F` [Example 171, 2-(6,7-Dimethoxy-4-methyl-quinazolin-2-ylamino)-6-{2[(2-dimethylamino-ethyl)-ethyl-amino]-ethoxy}-quinazolin-4-ol trifluoroacetate salt], in that order: 2 to 64 µg/mL, 16 to 64 µg/mL, 0.06 to 16 µg/mL, 64 µg/mL and 16 to 32 µg/mL.
